# Measured values reported in patent publication US20110230431A1, “FOSFOMYCIN/TOBRAMYCIN COMBINATIONS FOR THE TREATMENT AND PREVENTION OF OPHTHALMIC, OTOLOGICAL AND DERMATOLOGICAL INFECTIONS” (Gilead Sciences, Inc., priority 2008, published 2011).
# Like-named read-outs stand apart in the source and are kept apart here.
# Legend:
# [1] = tested on: Protein Synthesis in P. aeruginosa ATCC 27853; assay: Macromolecular biosynthesis: 3H-amino acid incorporation; format: cell-based, Pseudomonas aeruginosa
# Procedure: Picataway, N.J.) and N-acetyl-D-Glucosamine (^3H-NAG) (GE Healthcare Bio-Sciences), respectively (Baum, E Z, Antimicrob Agents Chernother 2001; 45 (11): 3182-3188). A single colony of P. aeruginosa ATCC 27853 was inoculated into 10 mL of CAMHB and incubated for 16 h, at 37° C., 200 rpm in a shaking water bath. […] At various time points, 100 μl aliquots (triplicate) of culture were removed and added to 100 μl of 20% TCA (VWR) in 96-well flat bottom trays (VWR). Plates were incubated on crushed ice for 60 min to precipitate the incorporated ^3H-precursors. Samples were harvested onto glass fibre filters (GFC) (PerkinElmer; Waltham, Mass.). Filters were washed two times with 35 mL of normal saline to remove unincorporated isotope followed by one wash with 35 mL of 90% ETOH (VWR). Filters were dried under a lamp for 1 h to reduce remaining moisture and then sealed in bags containing 5 mL of scintillation cocktail (Betaplate Scint; PerkinElmer). Counts per minute (CPM) were determined using a Wallac MicroBeta Trilux (PerkinElmer). Mean CPM±standard deviation (SD) were determined for each treatment group. Background counts consisting of a media-only sample were subtracted from the no-drug and antibiotic treatment groups. The percent inhibition of incorporation was determined relative to the no-drug controls. The activities of the three drugs were compared by calculating the time to 50% inhibition (T1/2), and statistical differences at each time point were evaluated by the Analysis of Variance (ANOVA; GraphPad Prisma software package 3.03; GraphPad Software, Inc., San Diego, Calif.). Each curve represents 4 replicate experiments, each time point performed in triplicate.
# E. coli = assay: MIC by agar plate dilution method (CLSI); format: cell-based, Escherichia coli
# Text: (§1) P. aeruginosa strains isolated from patients with cystic fibrosis (CF) were obtained from Children's Hospital and Regional Medical Center (Seattle, Wash.). Clinical isolates of Escherichia coli and Staphylococcus aureus were obtained from The Jones Group Laboratories (JMI; North Liberty, Iowa) and The Clinical Microbiology Institute (CMI; Wilsonville, Oreg.). P. aeruginosa 27853, S. aureus 29213, and E. coli 25922 served as quality control strains^1 and were obtained from The America Type Culture Collection (ATCC; Manassas, Va.). P. aeruginosa ATCC 27853, a fosfomycin and tobramycin susceptible strain, was used in macromolecular biosynthesis and tobramycin uptake experiments. Stock cultures were maintained at −80° C. in Cation-Adjusted Mueller-Hinton Broth (CAMHB) (Remel; Lenexa, Kans.) supplemented with 20% glycerol (VWR: West Chester, Pa.). Cultures for routine use were grown on tryptic soy agar plates+5% sheeps blood (PML Microbiologicals Inc.; Wilsonville, Oreg.) and stored at 4° C.
# (§2) MICs were determined by the agar plate dilution method according to CLSI guidelines (National Committee for Clinical Laboratory Standards. M7-A6. 6th ed. Villanova (Pa.): NCCLS, 2003; M100-S14. Villanova (Pa.): NCCLS, 2004).
# S. aureus = assay: MIC by agar plate dilution method (CLSI); format: cell-based, Staphylococcus aureus
# Text: as §1, §2
# P. aeruginosa ATCC 27853 = assay: Tobramycin uptake studies (3H-tobramycin); format: cell-based, Pseudomonas aeruginosa; conditions: 10 μg/mL fosfomycin, 3H-tobramycin 2.3 μg/mL, FIG. 7
# Procedure: The effects of fosfomycin uptake on tobramycin uptake were determined by measuring uptake of ^3H-tobramycin. A single colony of P. aeruginosa ATCC 27853 was inoculated into 5 mL nutrient broth (NB) (Difco & BBL; Sparks, Md.) and grown overnight at 37° C. with shaking (250 rpm). […] Five milliliter volumes were filtered through 0.45 μm nitrocellulose membrane filters (Whatman Inc., Florham Park, N.J.), pre-soaked with 410 mM MgCl2 (VWR). […] Data were expressed in CPM and represent the mean±SD of four independent experiments. Statistical differences were evaluated by the Student's t-test.
compound,measurement,setting,value
tobramycin sulfate,% Inhibition Protein,"[1]; 0.8 μg/mL, at 2 h relative to no-drug control, single experiment",2%
same,time to 50% inhibition (T1/2) of protein synthesis,[1]; 1.6 μg/mL (FIG. 5),> 3 h
same,% Inhibition Protein,"[1]; 1.6 μg/mL, at 2 h relative to no-drug control, single experiment",6%
same,% Inhibition Protein,"[1]; 3.2 μg/mL, at 2 h relative to no-drug control, single experiment",42%
same,MIC,E. coli; E. coli ATCC 25922,0.5 µg/mL
same,MIC,E. coli; E. coli C032,0.5 µg/mL
same,MIC,E. coli; E. coli C036,0.5 µg/mL
same,MIC,E. coli; E. coli C037,4 µg/mL
same,MIC,E. coli; E. coli C294,0.5 µg/mL
same,MIC,S. aureus; S. aureus ATCC 29213,0.25 µg/mL
same,MIC,S. aureus; S. aureus C051,0.25 µg/mL
same,MIC,S. aureus; S. aureus C053,0.25 µg/mL
same,MIC,S. aureus; S. aureus C055,0.25 µg/mL
same,MIC,S. aureus; S. aureus C057,0.5 µg/mL
"C[C@@H]1O[C@@H]1P(=O)(O)O [Fosfomycin, fosfomycin disodium]",increase in 3H-tobramycin uptake relative to the no-fosfomycin control,P. aeruginosa ATCC 27853,170%
same,time to 50% inhibition (T1/2) of protein synthesis,[1]; 6.4 μg/mL (FIG. 5),2.42 h
same,inhibition at 3.2 µg/mL,"[1]; Pseudomonas aeruginosa, ATCC27853, 3.2 μg/mL, at 2 h relative to no-drug control, single experiment",0%
same,inhibition at 6.4 µg/mL,"[1]; Pseudomonas aeruginosa, ATCC27853, 6.4 μg/mL, at 2 h relative to no-drug control, single experiment",21%
same,inhibition at 12.8 µg/mL,"[1]; Pseudomonas aeruginosa, ATCC27853, 12.8 μg/mL, at 2 h relative to no-drug control, single experiment",9%
same,MIC,"E. coli; Escherichia coli, ATCC25922, E. coli ATCC 25922, read-out: MIC",2 µg/mL
same,MIC,"E. coli; Escherichia coli, E. coli C032, read-out: MIC",1 µg/mL
same,MIC,"E. coli; Escherichia coli, E. coli C036, read-out: MIC",2 µg/mL
same,MIC,"E. coli; Escherichia coli, E. coli C037, read-out: MIC",1 µg/mL
same,MIC,"E. coli; Escherichia coli, E. coli C294, read-out: MIC",0.5 µg/mL
same,MIC,"S. aureus; Staphylococcus aureus, ATCC29213, S. aureus ATCC 29213, read-out: MIC",2 µg/mL
same,MIC,"S. aureus; Staphylococcus aureus, S. aureus C051, read-out: MIC",1 µg/mL
same,MIC,"S. aureus; Staphylococcus aureus, S. aureus C053, read-out: MIC",1 µg/mL
same,MIC,"S. aureus; Staphylococcus aureus, S. aureus C055, read-out: MIC",8 µg/mL
same,MIC,"S. aureus; Staphylococcus aureus, S. aureus C057, read-out: MIC",2 µg/mL
